Laboratory results: patent publication US11008337B2, “Chiral diaryl macrocycles as modulators of protein kinases” (Turning Point Therapeutics, Inc., priority 2015, dated 2021)

Columns and labels:
Type in all cases: cell-based
[1] = system: essential thrombocythemia cell line SET-2 cells (harboring endogenous JAK2 point mutation); experiment: Cell proliferation assay, SET-2 cells (CellTiter-Glo); settings: Homo sapiens, 72 hours incubation, read-out: Cell Proliferation IC50 SET2
How it was run: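 Karpas-299 (NPM-ALK) or SET-2 (JAK2 […]) cells in RPMI with 10% FBS, seeded 24 h before compound addition. Viability read by CellTiter-Glo ATP luminescence after 72 h incubation; IC50 derived from dose–response curves.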

[2] = target: T1, CD74-ROS1 Ba/F3 (Homo sapiens, UniProt P08922); experiment: Cell proliferation assay, CD74-ROS1 Ba/F3 stable cell line (CellTiter-Glo); settings: Ba/F3-CD74-ROS1 wild type cells, 72 hours compound incubation; read-out: Cell Proliferation IC50 CD74-ROS1 Ba/F3
T1 construct: fused on or other part: P04233 (HLA class II histocompatibility antigen gamma chain)
T1 sequence (P08922 whole entry, change not shown, the tested form may be a part): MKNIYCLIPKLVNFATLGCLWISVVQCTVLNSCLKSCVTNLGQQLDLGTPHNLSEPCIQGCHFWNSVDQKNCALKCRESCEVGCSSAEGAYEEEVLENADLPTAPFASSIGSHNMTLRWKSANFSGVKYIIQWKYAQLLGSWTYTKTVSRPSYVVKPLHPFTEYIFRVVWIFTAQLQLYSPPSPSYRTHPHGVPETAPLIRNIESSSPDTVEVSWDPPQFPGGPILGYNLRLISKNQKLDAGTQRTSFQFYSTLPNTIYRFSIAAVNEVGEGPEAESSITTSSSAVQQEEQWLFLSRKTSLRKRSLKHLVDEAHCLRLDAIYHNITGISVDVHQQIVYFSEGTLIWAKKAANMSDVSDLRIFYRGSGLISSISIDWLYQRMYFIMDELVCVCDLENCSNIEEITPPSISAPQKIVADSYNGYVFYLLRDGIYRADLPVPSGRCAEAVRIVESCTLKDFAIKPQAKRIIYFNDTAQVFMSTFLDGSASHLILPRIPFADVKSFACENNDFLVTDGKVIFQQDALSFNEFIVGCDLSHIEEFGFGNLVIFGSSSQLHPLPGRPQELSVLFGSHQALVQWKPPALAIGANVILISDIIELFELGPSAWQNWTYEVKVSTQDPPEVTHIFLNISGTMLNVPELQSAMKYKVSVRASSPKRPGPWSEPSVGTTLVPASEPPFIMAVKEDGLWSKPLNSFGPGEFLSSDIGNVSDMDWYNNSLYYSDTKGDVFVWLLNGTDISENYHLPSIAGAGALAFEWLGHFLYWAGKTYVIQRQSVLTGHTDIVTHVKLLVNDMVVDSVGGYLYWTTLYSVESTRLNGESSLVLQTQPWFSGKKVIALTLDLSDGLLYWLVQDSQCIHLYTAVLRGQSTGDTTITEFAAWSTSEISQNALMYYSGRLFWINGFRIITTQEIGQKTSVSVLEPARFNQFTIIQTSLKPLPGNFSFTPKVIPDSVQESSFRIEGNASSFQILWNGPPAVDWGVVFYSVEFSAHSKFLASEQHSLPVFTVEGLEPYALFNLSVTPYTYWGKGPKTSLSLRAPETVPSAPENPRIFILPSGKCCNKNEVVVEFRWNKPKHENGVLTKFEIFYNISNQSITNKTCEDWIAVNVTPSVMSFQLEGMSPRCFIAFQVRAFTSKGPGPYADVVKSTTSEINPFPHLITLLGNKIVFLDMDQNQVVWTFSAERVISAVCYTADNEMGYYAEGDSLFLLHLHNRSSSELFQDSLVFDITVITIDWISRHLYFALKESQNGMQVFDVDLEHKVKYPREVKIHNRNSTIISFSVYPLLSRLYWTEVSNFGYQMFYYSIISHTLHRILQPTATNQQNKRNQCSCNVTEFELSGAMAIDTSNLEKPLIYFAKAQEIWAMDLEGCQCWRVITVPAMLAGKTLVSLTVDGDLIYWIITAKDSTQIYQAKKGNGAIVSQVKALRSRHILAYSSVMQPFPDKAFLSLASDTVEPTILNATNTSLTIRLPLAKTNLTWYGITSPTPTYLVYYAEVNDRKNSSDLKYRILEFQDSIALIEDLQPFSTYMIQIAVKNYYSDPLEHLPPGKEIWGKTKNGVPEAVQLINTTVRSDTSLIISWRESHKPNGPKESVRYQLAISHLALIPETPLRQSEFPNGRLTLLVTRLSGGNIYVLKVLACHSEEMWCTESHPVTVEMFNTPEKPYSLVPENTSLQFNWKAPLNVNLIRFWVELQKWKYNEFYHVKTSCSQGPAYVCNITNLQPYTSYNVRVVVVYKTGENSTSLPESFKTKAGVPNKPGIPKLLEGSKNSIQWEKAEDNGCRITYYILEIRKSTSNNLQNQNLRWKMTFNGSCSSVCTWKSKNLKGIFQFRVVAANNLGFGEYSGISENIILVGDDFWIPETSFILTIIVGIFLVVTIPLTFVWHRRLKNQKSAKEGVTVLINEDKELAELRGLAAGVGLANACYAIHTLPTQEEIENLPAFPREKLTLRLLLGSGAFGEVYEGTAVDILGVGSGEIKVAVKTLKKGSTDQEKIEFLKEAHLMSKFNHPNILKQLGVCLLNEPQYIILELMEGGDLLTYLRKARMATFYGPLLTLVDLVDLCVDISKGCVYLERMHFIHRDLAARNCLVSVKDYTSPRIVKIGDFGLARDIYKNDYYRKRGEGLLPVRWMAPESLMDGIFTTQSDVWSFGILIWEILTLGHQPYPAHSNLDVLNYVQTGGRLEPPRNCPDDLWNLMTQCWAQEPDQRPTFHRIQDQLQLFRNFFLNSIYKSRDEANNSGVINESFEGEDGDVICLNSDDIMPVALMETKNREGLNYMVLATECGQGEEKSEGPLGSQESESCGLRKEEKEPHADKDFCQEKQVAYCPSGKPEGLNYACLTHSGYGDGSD
Description: Creation of CD74-ROS1 and EML4-ALK Ba/F3 Stable Cell Lines and Cell Proliferation Assays.
The CD74-ROS1 wild-type gene and EML4-ALK wild-type gene (variant 1) were synthesized at GenScript and cloned into pCDH-CMV-MCS-EF1-Puro plasmid (System Biosciences, Inc). Ba/F3-CD74-ROS1 and Ba/F3-EML4-ALK wild type cell lines were generated by infecting Ba/F3 cells with lentivirus containing CD74-ROS1 wide-type and EML4-ALK wild type. Stable cell lines were selected by puromycin treatment, followed by IL-3 withdrawal. 3000 cells were seeded in 384 well white plate overnight before compound treatment. Cell proliferation was measured using CellTiter-Glo luciferase-based ATP detection assay (Promega) following the manufactures's protocol after 72 hours of various concentration of compound incubation. IC50 determinations were performed using GraphPad Prism software (GraphPad, Inc., San Diego, Calif.).

[3] = target: T2, EML4-ALK Ba/F3 (Homo sapiens, UniProt Q9UM73); experiment: Cell proliferation assay, EML4-ALK Ba/F3 stable cell line (CellTiter-Glo); settings: Ba/F3-EML4-ALK wild type (variant 1) cells, 72 hours compound incubation; read-out: Cell Proliferation IC50 EML4-ALK Ba/F3
T2 construct: fused on or other part: Q9HC35 (Echinoderm microtubule-associated protein-like 4)
T2 sequence (Q9UM73 whole entry, change not shown, the tested form may be a part): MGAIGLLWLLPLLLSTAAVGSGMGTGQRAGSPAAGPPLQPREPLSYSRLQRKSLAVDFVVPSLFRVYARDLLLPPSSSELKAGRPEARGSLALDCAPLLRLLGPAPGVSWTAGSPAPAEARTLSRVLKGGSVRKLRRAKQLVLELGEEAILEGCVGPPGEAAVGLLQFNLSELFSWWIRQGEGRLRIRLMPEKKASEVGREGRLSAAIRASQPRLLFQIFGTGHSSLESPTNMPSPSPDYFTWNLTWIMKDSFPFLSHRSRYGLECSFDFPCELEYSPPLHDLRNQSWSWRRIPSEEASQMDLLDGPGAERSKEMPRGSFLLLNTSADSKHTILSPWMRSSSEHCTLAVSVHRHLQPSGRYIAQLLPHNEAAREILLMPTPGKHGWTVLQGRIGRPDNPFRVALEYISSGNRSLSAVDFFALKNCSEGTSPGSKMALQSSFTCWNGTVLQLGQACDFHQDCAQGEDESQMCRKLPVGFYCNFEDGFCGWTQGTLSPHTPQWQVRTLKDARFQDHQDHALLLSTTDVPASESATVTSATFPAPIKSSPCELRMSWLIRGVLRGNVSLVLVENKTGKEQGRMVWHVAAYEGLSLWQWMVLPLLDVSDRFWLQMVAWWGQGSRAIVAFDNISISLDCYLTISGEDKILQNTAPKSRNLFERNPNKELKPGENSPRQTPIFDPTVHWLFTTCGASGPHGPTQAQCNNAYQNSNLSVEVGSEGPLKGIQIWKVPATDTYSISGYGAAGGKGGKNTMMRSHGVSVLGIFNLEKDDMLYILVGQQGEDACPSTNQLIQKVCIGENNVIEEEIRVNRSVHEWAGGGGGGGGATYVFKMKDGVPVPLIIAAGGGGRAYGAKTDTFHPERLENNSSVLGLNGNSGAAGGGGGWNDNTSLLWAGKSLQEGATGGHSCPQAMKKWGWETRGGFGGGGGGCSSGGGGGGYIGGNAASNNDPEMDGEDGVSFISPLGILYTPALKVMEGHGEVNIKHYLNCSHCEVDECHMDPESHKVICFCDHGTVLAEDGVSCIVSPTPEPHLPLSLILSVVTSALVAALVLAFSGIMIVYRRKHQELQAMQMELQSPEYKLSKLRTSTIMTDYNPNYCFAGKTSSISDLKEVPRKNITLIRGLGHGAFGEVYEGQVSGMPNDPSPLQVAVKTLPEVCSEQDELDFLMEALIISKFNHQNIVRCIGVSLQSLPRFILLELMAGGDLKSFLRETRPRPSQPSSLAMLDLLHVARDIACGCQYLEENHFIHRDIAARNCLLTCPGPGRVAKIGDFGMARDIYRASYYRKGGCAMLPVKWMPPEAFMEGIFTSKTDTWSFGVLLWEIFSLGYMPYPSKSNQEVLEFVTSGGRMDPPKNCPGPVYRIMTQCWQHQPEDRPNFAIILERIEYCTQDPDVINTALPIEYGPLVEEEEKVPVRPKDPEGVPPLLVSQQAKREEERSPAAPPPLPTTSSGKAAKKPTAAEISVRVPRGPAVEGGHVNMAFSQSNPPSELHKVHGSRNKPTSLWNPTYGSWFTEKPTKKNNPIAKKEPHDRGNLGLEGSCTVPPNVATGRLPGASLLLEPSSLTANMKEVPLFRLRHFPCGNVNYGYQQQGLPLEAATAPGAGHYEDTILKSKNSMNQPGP
How it was run: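 Ba/F3 cells were lentivirally transduced with wild-type CD74-ROS1 or EML4-ALK (variant 1), selected with puromycin and made IL-3-independent. Cells (3000/well) were seeded overnight and then treated with the compounds at various concentrations for 72 h. Proliferation was read by CellTiter-Glo ATP luminescence, and IC50 values were fitted.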

[4] = system: Colorectal cell lines KM 12 (harboring endogenous TPM3-TRKA fusion gene); experiment: Cell proliferation assay, KM12 cells (CellTiter-Glo); settings: Homo sapiens, 72 hours incubation
[5] = system: T cell lymphoma Karpas-299 cell line (harboring endogenous NPM-ALK fusion gene); experiment: Cell proliferation assay, Karpas-299 cells (CellTiter-Glo); settings: Homo sapiens, 72 hours incubation
Protocol: Cell Proliferation Assays.
Colorectal cell lines KM 12 (harboring endogenous TPM3-TRKA fusion gene) cells were cultured in DMEM medium, supplemented with 10% fetal bovine serum and 100 U/mL of penicillin/streptomycin. 5000 cells were seeded in 384 well white plate for 24 hours before compounds treatment. Cell proliferation was measured using CellTiter-Glo luciferase-based ATP detection assay (Promega) following the manufactures's protocol after 72 hours incubation. IC50 determinations were performed using GraphPad Prism software (GraphPad, Inc., San Diego, Calif.). Alternatively, essential thrombocythemia cell line SET-2 cells (harboring endogenous JAK2 […] point mutation) or T cell lymphoma Karpas-299 cell line (harboring endogenous NPM-ALK fusion gene) were cultured in RPMI medium, supplemented with 10% fetal bovine serum and 100 U/mL of penicillin/streptomycin. 5000 cells were seeded in 384 well white plate for 24 hours before compounds treatment. Cell proliferation was measured using CellTiter-Glo luciferase-based ATP detection assay (Promega) following the manufactures's protocol after 72 hours incubation. IC50 determinations were performed using GraphPad Prism software (GraphPad, Inc., San Diego, Calif.).

Compound | IC50 [1] [µM] | GI50 [2] [µM] | GI50 [3] [µM] | IC50 [4] [µM] | IC50 [5] [µM]
CC[C@H]1CNC(=O)c2cnn3ccc(nc23)N[C@H](C)c2cc(F)ccc2O1 [Compound 3, (7S,13R)-7-ethyl-11-fluoro-13-methyl-6,7,13,14-tetrahydro-1,15-ethenopyrazolo[4,3-f][1,4,8,10]benzoxatriazacyclotridecin-4(5H)-one] | 0.263 | 0.0002 | 0.138 | 0.0003 | 0.083
C[C@H]1Nc2ccn3ncc(c3n2)C(=O)N[C@H](CO)COc2ccc(F)cc21 [Compound 8, (6R,13R)-11-fluoro-6-(hydroxymethyl)-13-methyl-6,7,13,14-tetrahydro-1,15-ethenopyrazolo[4,3-f][1,4,8,10]benzoxatriazacyclotridecin-4(5H)-one] | 0.406 | 0.0347 | 2.13 | 0.017 | 1.5
CC[C@@H]1COc2ccc(F)cc2[C@@H](C)Nc2ccn3ncc(c3n2)C(=O)N1 [Compound 2, (6R,13R)-6-ethyl-11-fluoro-13-methyl-6,7,13,14-tetrahydro-1,15-ethenopyrazolo[4,3-f][1,4,8,10]benzoxatriazacyclotridecin-4(5H)-one] | 0.956 | 0.0007 | 0.681 | 0.006 | 0.354
CNC(=O)[C@H]1CNC(=O)c2cnn3ccc(nc23)N[C@H](C)c2cc(F)ccc2O1 [Compound 15, (7R,13R)-7-(N-methylcarboxamide)-11-fluoro-13-methyl-6,7,13,14-tetrahydro-1,15-ethenopyrazolo[4,3-f][1,4,8,10]benzoxatriazacyclotridecin-4(5H)-one] | 4.79 | 1 | > 10 | 0.16 | > 10
